Results: BigSolDB 2.1

COC(=O)Nc1nc2ccccc2[nH]1
solubility (mole fraction)
Conditions | 278.15 K | 283.15 K | 288.15 K | 293.15 K | 298.15 K | 303.15 K | 308.15 K | 313.15 K | 318.15 K | 323.15 K
in ethanol | 6.39e-06 | 1.05e-05 | 1.58e-05 | 2.3e-05 | 3.19e-05 | 4.34e-05 | 5.78e-05 | 7.66e-05 | 0.000101 | 0.000134
in methanol | 3.19e-05 | 4e-05 | 5.2e-05 | 6.33e-05 | 7.77e-05 | 9.85e-05 | 0.000118 | 0.000143 | 0.000173 | 0.000201
in n-butanol | 2.12e-06 | 3.75e-06 | 6.22e-06 | 9.84e-06 | 1.5e-05 | 2.28e-05 | 3.34e-05 | 5.07e-05 | 7.61e-05 | 0.000111
in n-pentanol | 1e-06 | 2e-06 | 3.62e-06 | 6.19e-06 | 1.05e-05 | 1.69e-05 | 2.87e-05 | 4.55e-05 | 6.8e-05 | 0.000101
in n-propanol | 3.3e-06 | 5.42e-06 | 8.66e-06 | 1.3e-05 | 1.89e-05 | 2.73e-05 | 3.92e-05 | 5.57e-05 | 8.38e-05 | 0.00012
